Assay results: ChEMBL document CHEMBL1629426, “7-Nor-ergosterolide, a pentalactone-containing norsteroid and related steroids from the marine-derived endophytic Aspergillus ochraceus EN-31” (J Nat Prod, 2010)
Values after ≈ are worked out from the molar mass of the structure shown. Active and inactive are the calls of the source. No cut-off for these calls is given here.

How the values were obtained:
NCI-H460 = assay: Cytotoxicity against human NCI-H460 cells by colorimetric assay; type: functional, cell-based
SMMC-7721 = assay: Cytotoxicity against human SMMC7721 cells by colorimetric assay; type: functional, cell-based
SW1990 = assay: Cytotoxicity against human SW1990 cells by colorimetric assay; type: functional, cell-based
Staphylococcus aureus = assay: Antimicrobial activity against Staphylococcus aureus by agar diffusion method; type: functional, organism-based
Escherichia coli = assay: Antimicrobial activity against Escherichia coli by agar diffusion method; type: functional, organism-based
Aspergillus niger = assay: Antimicrobial activity against Aspergillus niger by agar diffusion method; type: functional, organism-based

Row | Structure (SMILES) | IC50 (NCI-H460) [µg/mL] | IC50 (SMMC-7721) [µg/mL] | IC50 (SW1990) [µg/mL] | Activity (Staphylococcus aureus) | Activity (Escherichia coli) | Activity (Aspergillus niger)
1 | C=C(CC[C@@H](C)[C@H]1CC[C@H]2C3=C(CC[C@]12C)[C@@]1(C)CC[C@H](O)C[C@@H]1C(=O)O3)C(C)C | 5 (≈ 12.1 µM) | 7 (≈ 16.9 µM) | 28 (≈ 67.5 µM) | inactive | inactive | inactive
2 | C=C(CC[C@@H](C)[C@H]1CC[C@H]2C3=C(CC[C@]12C)[C@@]1(C)CC[C@H](O)C[C@@H]1CC3=O)C(C)C |  |  |  | inactive | inactive | inactive
3 | C=C(CC[C@@H](C)[C@H]1CC[C@H]2C3=C([C@H](O)C[C@]12C)[C@@]1(C)CC[C@H](O)C[C@@H]1CC3=O)C(C)C |  | 28 (≈ 65.3 µM) |  | inactive | inactive | inactive
